Source: patent US11279733B2, “Peptide antibiotics” (priority 2017, dated 2022)
Values after ≈ are worked out from the molar mass of the structure shown. Read-outs that look alike come from different tables or passages of the source. Positions of bridges follow the written chain, without caps; N, C: chain ends. Non-standard residues stand in square brackets, D forms with d. Residues, ends and D or L forms follow the SMILES beside them. *: point of attachment. dPhe(4-NO2) = N[C@H](Cc1ccc([N+](=O)[O-])cc1)C(=O)O; Benzoyl(4-OPh) = O=C(c1ccc(Oc2ccccc2)cc1)*; Decanoyl(3R-OH) = CCCCCCC[C@@H](O)CC(=O)*; dDab = NCC[C@@H](N)C(=O)O; X8 = CC(C)CCCC(C)CC(=O)*; Dab = NCC[C@H](N)C(=O)O

Experiments:
[1] = test system: K. pneumoniae GN_102 PmxR; settings: GN 102 PmxR
Protocol: (§1) Bacteria were either obtained from American Type Culture Collection (ATCC; Manassas, Va., USA) or independent academic clinical isolate collections, as listed in Table 18 below. Bacteria were cultured in Nutrient broth (NB; Bacto Laboratories, catalogue No. 234000) or Mueller Hinton broth (MHB; Bacto Laboratories, catalogue No. 211443) at 37° C. overnight with shaking (˜180 RPM). A sample of each culture was then diluted 50-fold in fresh MHB and incubated at 37° C. for 2-3 h with shaking (˜180 RPM). Compound stock solutions were prepared as 0.64 mg/mL or 2.56 mg/mL in water. The compounds, at twice the final desired concentration, were serially diluted 2-fold across the wells of 96-well plates (Polystyrene, Corning, catalogue No. 3370). Mid-log phase bacterial cultures (after 2-3 h incubation) were diluted to a final concentration of 1×10^6 colony forming units (CFU)/mL, and 50 μL was added to each well giving a final cell density of 5×10^5 and a compound concentration range of 32 μg/mL to 0.015 μg/mL (128-0.06 μg/mL against P. aeruginosa PA9704).

A. baumannii ATCC 19606 = settings: ATCC 19606
Protocol: as §1

[2] = test system: P. aeruginosa GN_105, PmxR; settings: GN 105, PmxR
Protocol: as §1

[3] = test system: S. aureus ATCC 25923, MSSA; settings: ATCC 25923
Protocol: as §1

K. pneumoniae ATCC 13883 = settings: ATCC 13883
Protocol: as §1

E. coli ATCC 25922 = settings: ATCC 25922
Protocol: as §1

A. baumannii GN_093 PmxR = settings: GN 093 PmxR
Protocol: as §1

[4] = test system: P. aeruginosa GN_043, PmxR
Protocol: as §1

[5] = test system: K. pneumoniae ATCC BAA-2146, NDM-1 pos; settings: ATCC BAA-2146
Protocol: as §1

P. aeruginosa ATCC 27853 = settings: ATCC 27853
Protocol: as §1

[6] = test system: K. pneumoniae GN_106, PmxR; settings: GN 106, PmxR
Protocol: as §1

[7] = test system: K. pneumoniae ATCC 700603, MDR; settings: ATCC 700603
Protocol: as §1

With `CCCCCCC[C@@H](O)CC(=O)N[C@H](CC(N)=O)C(=O)N[C@H]1CCNC(=O)[C@H](CC(C)C)NC(=O)[C@H](CCN)NC(=O)[C@H](CCN)NC(=O)[C@H](CC(C)C)NC(=O)[C@@H](Cc2ccccc2)NC(=O)[C@H](CCN)NC1=O` [compound 6447, 3(R)OH-nC9CO-D-Asn-cyc[L-Dab-L-Dab-D-Phe-L-Leu-L-Dab-L-Dab-L-Leu]] ({Decanoyl(3R-OH)}-[dN][Dab][Dab][dF]L[Dab][Dab]L; lactam 2-C) the “MIC K. pneumoniae GN_102 PmxR” value [1] was 4 µg/mL (≈ 3.78 µM), the “MIC, A. baumannii ATCC 19606” value (A. baumannii ATCC 19606) was 16 µg/mL (≈ 15.1 µM) and the “MIC P. aeruginosa GN_105, PmxR” value [2] was 4 µg/mL (≈ 3.78 µM). For the same compound, the “MIC, S. aureus ATCC 25923, MSSA” value [3] was 32 µg/mL (≈ 30.2 µM), the “MIC, K. pneumoniae ATCC 13883” value (K. pneumoniae ATCC 13883) was 4 µg/mL (≈ 3.78 µM) and the “MIC, E. coli ATCC 25922” value (E. coli ATCC 25922) was 4 µg/mL (≈ 3.78 µM). For the same compound, the “MIC A. baumannii GN_093 PmxR” value (A. baumannii GN_093 PmxR) was 8 µg/mL (≈ 7.56 µM), the “MIC P. aeruginosa GN_043, PmxR” value ([4]; Table 6, polymyxin-resistant) was 8 µg/mL (≈ 7.56 µM) and the “MIC, K. pneumoniae ATCC BAA-2146, NDM-1 pos” value [5] was 8 µg/mL (≈ 7.56 µM). For the same compound, the “MIC, P. aeruginosa ATCC 27853” value (P. aeruginosa ATCC 27853) was 8 µg/mL (≈ 7.56 µM), the “MIC K. pneumoniae GN_106, PmxR” value [6] was 4 µg/mL (≈ 3.78 µM) and the “MIC, K. pneumoniae ATCC 700603, MDR” value [7] was 8 µg/mL (≈ 7.56 µM).

In the case of `CCCCCCC[C@@H](O)CC(=O)N[C@H](Cc1ccc([N+](=O)[O-])cc1)C(=O)N[C@H]1CCNC(=O)[C@H](CC(C)C)NC(=O)[C@H](CCN)NC(=O)[C@H](CCN)NC(=O)[C@H](CC(C)C)NC(=O)[C@@H](Cc2ccccc2)NC(=O)[C@H](CCN)NC1=O` [compound 6448, 3(R)OH-nC9CO-D-4NO2Phe-cyc[L-Dab-L-Dab-D-Phe-L-Leu-L-Dab-L-Dab-L-Leu]] ({Decanoyl(3R-OH)}-[dPhe(4-NO2)][Dab][Dab][dF]L[Dab][Dab]L; lactam 2-C), the “MIC K. pneumoniae GN_102 PmxR” value [1] was 8 µg/mL (≈ 7.04 µM), the “MIC, A. baumannii ATCC 19606” value (A. baumannii ATCC 19606) was 8 µg/mL (≈ 7.04 µM) and the “MIC P. aeruginosa GN_105, PmxR” value [2] was 8 µg/mL (≈ 7.04 µM). For the same compound, the “MIC, S. aureus ATCC 25923, MSSA” value [3] was 16 µg/mL (≈ 14.1 µM), the “MIC, K. pneumoniae ATCC 13883” value (K. pneumoniae ATCC 13883) was 4 µg/mL (≈ 3.52 µM) and the “MIC, E. coli ATCC 25922” value (E. coli ATCC 25922) was 4 µg/mL (≈ 3.52 µM). For the same compound, the “MIC A. baumannii GN_093 PmxR” value (A. baumannii GN_093 PmxR) was 8 µg/mL (≈ 7.04 µM), the “MIC P. aeruginosa GN_043, PmxR” value ([4]; Table 6, polymyxin-resistant) was 8 µg/mL (≈ 7.04 µM) and the “MIC, K. pneumoniae ATCC BAA-2146, NDM-1 pos” value [5] was 8 µg/mL (≈ 7.04 µM). The “MIC, P. aeruginosa ATCC 27853” value (P. aeruginosa ATCC 27853) was 8 µg/mL (≈ 7.04 µM), the “MIC K. pneumoniae GN_106, PmxR” value [6] was 4 µg/mL (≈ 3.52 µM) and the “MIC, K. pneumoniae ATCC 700603, MDR” value [7] was 8 µg/mL (≈ 7.04 µM).

With `CC(C)CCCC(C)CC(=O)N[C@H](CCN)C(=O)N[C@H]1CCNC(=O)[C@H](CC(C)C)NC(=O)[C@H](CCN)NC(=O)[C@H](CCN)NC(=O)[C@H](CC(C)C)NC(=O)[C@@H](Cc2ccccc2)NC(=O)[C@H](CCN)NC1=O` (stereo partly drawn) [compound 6523, 3,7-dimethyloctanoic acid-D-Dab-cyc[L-Dab-L-Dab-D-Phe-L-Leu-L-Dab-L-Dab-L-Leu]] (X8-[dDab][Dab][Dab][dF]L[Dab][Dab]L; lactam 2-C) the “MIC K. pneumoniae GN_102 PmxR” value [1] was 16 µg/mL (≈ 15.6 µM), the “MIC A. baumannii ATCC 19606” value (A. baumannii ATCC 19606) was over 32 µg/mL and the “MIC P. aeruginosa GN_105, PmxR” value [2] was 2 µg/mL (≈ 1.94 µM). The “MIC S. aureus ATCC 25923, MSSA” value [3] was 32 µg/mL (≈ 31.1 µM), the “MIC K. pneumoniae ATCC 13883” value (K. pneumoniae ATCC 13883) was 4 µg/mL (≈ 3.89 µM) and the “MIC E. coli ATCC 25922” value (E. coli ATCC 25922) was 1 µg/mL (≈ 0.972 µM). For the same compound, the “MIC A. baumannii GN_093 PmxR” value (A. baumannii GN_093 PmxR) was 16 µg/mL (≈ 15.6 µM), the “MIC P. aeruginosa GN_043, PmxR” value [4] was 2 µg/mL (≈ 1.94 µM) and the “MIC K. pneumoniae ATCC BAA-2146, NDM-1 pos” value [5] was 8 µg/mL (≈ 7.78 µM). The “MIC P. aeruginosa ATCC 27853” value (P. aeruginosa ATCC 27853) was 2 µg/mL (≈ 1.94 µM), the “MIC K. pneumoniae GN_106, PmxR” value [6] was 32 µg/mL (≈ 31.1 µM) and the “MIC K. pneumoniae ATCC 700603, MDR” value [7] was 8 µg/mL (≈ 7.78 µM).

`CC(C)C[C@@H]1NC(=O)[C@H](CCN)NC(=O)[C@H](CCN)NC(=O)[C@H](CC(C)C)NC(=O)[C@@H](Cc2ccccc2)NC(=O)[C@H](CCN)NC(=O)[C@@H](NC(=O)[C@@H](CCN)NC(=O)c2ccc(Oc3ccccc3)cc2)CCNC1=O` [compound 6527, Ph-4-OPhCO-D-Dab-cyc[L-Dab-L-Dab-D-Phe-L-Leu-L-Dab-L-Dab-L-Leu]] ({Benzoyl(4-OPh)}-[dDab][Dab][Dab][dF]L[Dab][Dab]L; lactam 2-C) was tested, and the “MIC K. pneumoniae GN_102 PmxR” value [1] was 32 µg/mL (≈ 29.9 µM), the “MIC A. baumannii ATCC 19606” value (A. baumannii ATCC 19606) was over 32 µg/mL and the “MIC P. aeruginosa GN_105, PmxR” value [2] was 4 µg/mL (≈ 3.74 µM). For the same compound, the “MIC S. aureus ATCC 25923, MSSA” value [3] was over 32 µg/mL, the “MIC K. pneumoniae ATCC 13883” value (K. pneumoniae ATCC 13883) was 16 µg/mL (≈ 14.9 µM) and the “MIC E. coli ATCC 25922” value (E. coli ATCC 25922) was 2 µg/mL (≈ 1.87 µM). For the same compound, the “MIC A. baumannii GN_093 PmxR” value (A. baumannii GN_093 PmxR) was over 32 µg/mL, the “MIC P. aeruginosa GN_043, PmxR” value [4] was 1 µg/mL (≈ 0.934 µM) and the “MIC K. pneumoniae ATCC BAA-2146, NDM-1 pos” value [5] was 16 µg/mL (≈ 14.9 µM). For the same compound, the “MIC P. aeruginosa ATCC 27853” value (P. aeruginosa ATCC 27853) was 2 µg/mL (≈ 1.87 µM), the “MIC K. pneumoniae GN_106, PmxR” value [6] was over 32 µg/mL and the “MIC K. pneumoniae ATCC 700603, MDR” value [7] was 16 µg/mL (≈ 14.9 µM).
